In patent US20250361217A1, “FATTY ACID COMPOUNDS” (University of Pittsburgh - Of the Commonwealth System of …, priority 2022, published 2025):

Key:
[1] = design: species or system mice; conditions: mouse, in vivo
Description: Male C57BL/6J (12 weeks old) mice were used to measure the absorption and metabolism of FuFA. In this procedure, I1D3 (50 mg/kg), I 1U3 (50 mg/kg), I1U3-2M (50 mg/kg) and D31-palmitic acid (10 mg/kg) were administered simultaneously (cassette dosing) to single animal. Consequently, the relative pharmacokinetics of multiple compounds can be assessed rapidly with a small number of experimental animals. The compounds were injected either intraperitoneally (n=5) or by gavage (n=5). At 1, 2 and 4h after injection, a small incision on the tail vein was performed and microhematocrit capillary tubes (FisherBrand, #22-362566) were used to collect serial blood samples ([…] per collection). At 6h, mice were anesthetized, and blood was collected from the vena cava in a terminal blood draw. Blood samples were processed as described above to collect plasma. The pharmacokinetics (PK) of free FuFAs and D31-palmitic acid and their esters found in complex lipids were evaluated using 10 μl of plasma. Briefly, 20 μl of water were added to the […] of plasma and divided into 2 glass tubes. The sample in one tube was measured as is using GC-MS upon derivatization and the other sample was hydrolyzed before derivatization and quantification. […] For the total FA quantification, basic hydrolysis was performed using 500 μl of 1M KOH in MeOH and incubated for 1 h at 60° C. […]

[2] = system: LncRNA GM15441; assay: Fluorescence RNA in-situ hybridization for GM15441; format: in vivo, mice; conditions: livers of HFD-treated groups
Description: Fluorescence RNA in-situ hybridization was performed on tissue sections using LNA ISH Optimization Kits (Qiagen, #339459) according to manufacturer's instructions. Briefly, the sectioning slides were deparaffinized and digested by proteinase K approach for 15 min at 37° C. U6, scrambled RNA, and GM15441 (LCD0173184) probes were hybridized at final concentration of 1 nM, 40 nM and 40 nM, respectively, followed by stringent washes of serial diluted SSC (Sigma, #S6639-1 L). After 30 min blocking, the slides were incubated with anti-DIG-POD (Roche, #11207733910) at 1:400 dilution for 60 min at RT according to manufacturer's instructions. TSA-plus Cyanine 3 (Akoya Bioscience, #NEL744001KT) substrate was added to the sections and incubated twice (5 min per incubation) to amplify the fluorescence signal. NucBlue Live ReadyProbes Reagent was applied to the slides at last to facilitate cell nuclei staining. Images were acquired on a fluorescent microscope (Leica, DMi8) using the Ocular Advanced Scientific Camera Control software (Digital Optics Limited).

[3] = Energy expenditure and respiratory exchange ratio (FIG. 6D); format: in vivo; conditions: mice after treatment

absorption pathway [1]: absorbed through the hepatic portal vein | oral stability (half-lives) compared with natural FuFAs ([1]; po, 50 mg/kg): longer half-lives
SMILES: CCCc1ccc(CCCCCCCCCC(C)(C)C(=O)O)o1 [11U3-2M, 2,2-Dimethyl-11-(5-propylfuran-2-yl)undecanoic acid]
GM15441 in-situ hybridization signal [2]: only detected in the nucleus of cells from 11U3-2M treated livers | energy expenditure [3]: no change | respiratory exchange ratio [3]: no change
